Source: US8598119B2, “Methods and compositions for sleep disorders and other disorders” (priority 2008, dated 2013)
pKi: −log10 of the molar value. Entries after “also recorded” stand apart in the source; their conditions may differ. Values belong to the compound of their own block, whether it stands above or below them.

Columns and labels:
[1] = biological target: H1 receptors (Homo sapiens (Human), UniProt P35367); test: biochemical
[2] = tested on: patients with sleep maintenance insomnia (SMI); test: Clinical trial, overnight PSG in patients with sleep maintenance insomnia; assay type: in vivo, human; details: for SWS, Mean Change from Baseline / Total Sleep Time, Mean Change from Baseline / Total Time Awake, Mean Change from Baseline / WASO, Mean Change from Baseline: n = 18, PSG
[3] = tested on: unilateral 6-OHDA-lesioned mice; test: L-DOPA induced dyskinesia (AIMS) in unilateral 6-OHDA-lesioned mice; assay type: in vivo, mouse
From the text: Day 1-Day 9: Treatment with L-DOPA/benserazide
Day 10: Treatment with L-DOPA/benserazide+Evaluation of AIMs (dyskinesia)
Experiment 1 (Chronic): Development of Dyskinesia
Day 1-Day 10: Treatment with L-DOPA/benserazide plus ITI-007 ITI-007PD.
Day 11: Treatment with L-DOPA/benserazide+Evaluation of AIMs (dyskinesia)
Experiment 2 (Acute): Expression of dyskinesia
Day 1-Day 10: Treatment with L-DOPA/benserazide
Day 11: Treatment with L-DOPA/benserazide plus ITI-007+Evaluation of AIMs (dyskinesia)
The compound effectively reduces (by ˜50%) the development of dyskinetic behaviors in PD mice (i.e., Chronic treatment group). It has a less robust but still significant effect (by ˜25% reduction) on established dyskinetic behaviors (i.e., Acute treatment group). […] In addition to reducing L-DOPA-Induced Dyskinesias, as described above, the Compounds of Formula I will also reduce PD psychosis and depression, improve poor night time sleep and reduce excessive daytime sleepiness.

[4] = biological target: human 5-HT2C receptors (Homo sapiens (Human), UniProt P28335, I156V/I160V); test: biochemical
[5] = tested on: socially-defeated mice; test: Social defeat (resident-intruder) mouse model for depression; assay type: in vivo
[6] = biological target: SERT (rat forebrain synaptosomal membrane) (Rattus norvegicus (Rat), UniProt P31652); test: Transporter SERT radioligand binding assay in rat forebrain, [3H]-N-Methyl-Citalopram; details: Table 2
[7] = biological target: Striatal D2 receptor (Homo sapiens (Human), UniProt P14416); test: Striatal D2 receptor occupancy by positron emission tomography in healthy volunteers; assay type: in vivo; details: PET
[8] = tested on: socially-defeated mice; details: treated daily for 30 days; cited from earlier work
[9] = 1, 5, 10 mg single doses, in words

Chain of Striatal D2 receptor (P14416 whole entry): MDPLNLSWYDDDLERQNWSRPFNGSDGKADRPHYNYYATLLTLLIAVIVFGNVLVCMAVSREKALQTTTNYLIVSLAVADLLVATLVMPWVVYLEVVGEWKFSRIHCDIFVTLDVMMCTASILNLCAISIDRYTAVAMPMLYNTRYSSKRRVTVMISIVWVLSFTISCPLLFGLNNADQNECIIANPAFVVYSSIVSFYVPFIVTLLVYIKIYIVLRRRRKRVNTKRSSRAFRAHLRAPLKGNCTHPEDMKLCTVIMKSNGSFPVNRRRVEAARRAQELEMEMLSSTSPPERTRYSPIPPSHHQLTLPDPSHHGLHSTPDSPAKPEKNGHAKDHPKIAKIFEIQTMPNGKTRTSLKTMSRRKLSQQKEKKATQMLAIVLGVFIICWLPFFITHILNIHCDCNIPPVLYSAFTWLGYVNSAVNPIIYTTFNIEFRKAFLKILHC
Chain of human 5-HT2C receptors (P28335 33-458 I156V/I160V): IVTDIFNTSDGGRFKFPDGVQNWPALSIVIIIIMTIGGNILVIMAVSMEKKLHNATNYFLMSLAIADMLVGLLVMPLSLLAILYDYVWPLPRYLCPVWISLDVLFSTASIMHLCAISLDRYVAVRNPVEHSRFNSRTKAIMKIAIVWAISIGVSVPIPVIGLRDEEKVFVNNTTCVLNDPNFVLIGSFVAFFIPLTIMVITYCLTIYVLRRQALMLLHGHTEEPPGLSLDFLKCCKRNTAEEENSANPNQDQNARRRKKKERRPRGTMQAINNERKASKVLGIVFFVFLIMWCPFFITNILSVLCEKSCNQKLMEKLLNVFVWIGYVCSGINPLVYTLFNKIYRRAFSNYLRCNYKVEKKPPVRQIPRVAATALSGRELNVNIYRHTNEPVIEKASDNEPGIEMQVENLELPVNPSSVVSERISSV
Chain of H1 receptors (P35367 whole entry): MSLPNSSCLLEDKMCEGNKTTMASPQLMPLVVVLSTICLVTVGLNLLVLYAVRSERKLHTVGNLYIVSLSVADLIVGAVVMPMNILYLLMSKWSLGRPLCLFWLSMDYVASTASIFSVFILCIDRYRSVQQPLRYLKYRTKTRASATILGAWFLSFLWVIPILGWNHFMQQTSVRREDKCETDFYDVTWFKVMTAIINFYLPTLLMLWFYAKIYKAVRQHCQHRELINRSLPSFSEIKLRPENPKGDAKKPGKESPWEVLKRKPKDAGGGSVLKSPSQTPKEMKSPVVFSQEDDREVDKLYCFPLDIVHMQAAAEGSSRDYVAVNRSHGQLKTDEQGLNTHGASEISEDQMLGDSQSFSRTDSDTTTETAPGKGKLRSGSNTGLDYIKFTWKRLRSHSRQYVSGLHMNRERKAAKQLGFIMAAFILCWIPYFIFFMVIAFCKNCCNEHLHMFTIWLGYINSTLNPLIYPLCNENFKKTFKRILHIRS
Chain of SERT (rat forebrain synaptosomal membrane) (P31652 whole entry): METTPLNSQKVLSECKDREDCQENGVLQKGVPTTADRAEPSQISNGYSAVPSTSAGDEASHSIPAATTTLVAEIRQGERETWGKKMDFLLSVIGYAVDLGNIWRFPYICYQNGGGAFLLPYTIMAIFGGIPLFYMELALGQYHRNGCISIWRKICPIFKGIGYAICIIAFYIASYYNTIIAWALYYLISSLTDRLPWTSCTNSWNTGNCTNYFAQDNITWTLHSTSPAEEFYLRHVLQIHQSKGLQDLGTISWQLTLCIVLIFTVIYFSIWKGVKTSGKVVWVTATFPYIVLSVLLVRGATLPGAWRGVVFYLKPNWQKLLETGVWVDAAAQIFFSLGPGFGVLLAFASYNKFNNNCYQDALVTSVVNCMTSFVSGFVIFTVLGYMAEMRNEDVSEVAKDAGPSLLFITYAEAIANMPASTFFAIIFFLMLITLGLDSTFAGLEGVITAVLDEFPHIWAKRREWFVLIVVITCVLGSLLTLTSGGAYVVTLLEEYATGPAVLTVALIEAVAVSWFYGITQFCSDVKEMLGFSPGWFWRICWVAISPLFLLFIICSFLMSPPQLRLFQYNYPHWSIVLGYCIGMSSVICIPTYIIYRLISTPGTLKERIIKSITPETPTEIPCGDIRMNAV

pKi [1]: < 7.00
early-morning rebound insomnia ([2]; human, in vivo): no early-morning rebound insomnia
pKi [4]: 6.76
pKi [6]: 7.34
% Striatal D2 Occupancy ([7]; 20 mg): ~20%
% Striatal D2 Occupancy ([7]; 30 mg): ~32%
SMILES: CN1CCN2c3c(cccc31)[C@@H]1CN(CCCC(=O)c3ccc(F)cc3)CC[C@@H]12 [Compound A, 1-(4-Fluoro-phenyl)-4-((6bR,10aS)-3-methyl-2,3,6b,9,10,10a-hexahydro-1H,7H-pyrido[3′,4′,4,5]pyrrolo[1,2,3-de]quinoxalin-8-yl)-butan-1-one]
SWS, Mean Change from Baseline ([2]; 1 mg single dose): 0.47 min
Total Sleep Time, Mean Change from Baseline ([2]; 1 mg single dose): 4.17 min
Total Time Awake, Mean Change from Baseline ([2]; 1 mg single dose): -4.08 min
WASO, Mean Change from Baseline ([2]; 1 mg single dose): -12.69 min
SWS, Mean Change from Baseline ([2]; 5 mg single dose): 5.53 min
Total Sleep Time, Mean Change from Baseline ([2]; 5 mg single dose): 0.56 min
Total Time Awake, Mean Change from Baseline ([2]; 5 mg single dose): -1.42 min
WASO, Mean Change from Baseline ([2]; 5 mg single dose): -14.31 min
SWS, Mean Change from Baseline ([2]; 10 mg single dose): 8.94 min
Total Sleep Time, Mean Change from Baseline ([2]; 10 mg single dose): 27.61 min
Total Time Awake, Mean Change from Baseline ([2]; 10 mg single dose): -28.31 min
WASO, Mean Change from Baseline ([2]; 10 mg single dose): -33.22 min
effect on slow wave sleep (SWS) [2, 9]: increases SWS; also recorded: dose-dependently increase slow wave sleep
effect on wake time after sleep onset (WASO) [2, 9]: dose-dependently decreases WASO; also recorded: dose-dependently decreases wake after sleep onset
duration of REM ([2]; PSG): no change in duration of REM; also recorded: did not suppress REM sleep
latency to REM ([2]; PSG): no change on latency to REM
latency to fall asleep ([2]; PSG): does not impair latency to fall asleep
slow wave sleep by part of the night ([2]; first and second quarter of the night): increases slow wave sleep during the first half of the night
dose-related adverse events or changes in safety parameters ([2]; human, in vivo): no dose-related adverse events or changes in safety parameters
serious adverse events ([2]; human, in vivo): no serious adverse events
total sleep time ([2]; in words): increase total sleep time
cognitive function the morning after PSG (DSST, WPAT, Leeds Psychomotor Test) ([2]; next day): does not impair cognitive function; also recorded: do not impair next-day cognitive function
sleep architecture ([2]; over the course of the night): preserves normal sleep architecture over the course of the night
safety and tolerability ([2]; patients with sleep maintenance insomnia): safe and well tolerated; also recorded: safe and well-tolerated
stage 2 sleep by part of the night ([2]; third and fourth quarter of the night): increases stage 2 sleep during the second half of the night
reduction of development of dyskinetic behaviors (Chronic treatment group) ([3]; 0.3 mg/kg IP co-administered with levodopa 10 mg/kg IP, chronic): ~50%
reduction of established dyskinetic behaviors (Acute treatment group) ([3]; 0.3 mg/kg IP with levodopa 10 mg/kg IP, acute): ~25%
time in the Interaction Zone, socially-defeated mice ([5]; 1 mg/kg IP once daily for 29 d, tested day 30, versus socially-defeated mice receiving vehicle): almost twice as much time in the Interaction Zone
general health and weight gain, normal mice ([5]; normal mice treated once daily for 30 d, 1 mg/kg IP): healthy and normal-appearing and gained weight normally
time in the Interaction Zone, normal mice ([5]; normal mice, 1 mg/kg IP once daily, versus vehicle): comparable time in the Interaction Zone as mice receiving the vehicle injection

SMILES: CN(C)CCCN1c2ccccc2CCc2ccccc21 [IMI, imipramine]
social interaction behavior of socially defeated mice after chronic anti-depressant [8]: improved social interaction behavior

SMILES: CNCCC(Oc1ccc(C(F)(F)F)cc1)c1ccccc1 (centres unmarked) [fluoxetine]
social interaction behavior of socially defeated mice after chronic anti-depressant [8]: improved social interaction behavior
